For orientation: IC50 means the point on the concentration scale where inhibition reaches its midpoint. Low readings indicate greater potency in that assay, high ones weaker potency in that assay. Broadly, the bioavailability is dose-corrected exposure relative to a reference, in per cent. A lower bioavailability goes with little systemic uptake. As a reminder, the half-life is the time in which the quantity being followed falls by half. Higher therefore signals slow loss. What is called Cmax is the maximum level reached in the sampled fluid or tissue. Broadly, the AUC is the area under the concentration-time curve, a measure of exposure. The AUC(0-inf) is total exposure, with the tail of the curve extrapolated. A lower AUC(0-inf) goes with less exposure.

Series [1] has as its target T1, Sodium- and chloride-dependent glycine transporter 1 (Homo sapiens, UniProt P48067).
T1 sequence (P48067 whole entry): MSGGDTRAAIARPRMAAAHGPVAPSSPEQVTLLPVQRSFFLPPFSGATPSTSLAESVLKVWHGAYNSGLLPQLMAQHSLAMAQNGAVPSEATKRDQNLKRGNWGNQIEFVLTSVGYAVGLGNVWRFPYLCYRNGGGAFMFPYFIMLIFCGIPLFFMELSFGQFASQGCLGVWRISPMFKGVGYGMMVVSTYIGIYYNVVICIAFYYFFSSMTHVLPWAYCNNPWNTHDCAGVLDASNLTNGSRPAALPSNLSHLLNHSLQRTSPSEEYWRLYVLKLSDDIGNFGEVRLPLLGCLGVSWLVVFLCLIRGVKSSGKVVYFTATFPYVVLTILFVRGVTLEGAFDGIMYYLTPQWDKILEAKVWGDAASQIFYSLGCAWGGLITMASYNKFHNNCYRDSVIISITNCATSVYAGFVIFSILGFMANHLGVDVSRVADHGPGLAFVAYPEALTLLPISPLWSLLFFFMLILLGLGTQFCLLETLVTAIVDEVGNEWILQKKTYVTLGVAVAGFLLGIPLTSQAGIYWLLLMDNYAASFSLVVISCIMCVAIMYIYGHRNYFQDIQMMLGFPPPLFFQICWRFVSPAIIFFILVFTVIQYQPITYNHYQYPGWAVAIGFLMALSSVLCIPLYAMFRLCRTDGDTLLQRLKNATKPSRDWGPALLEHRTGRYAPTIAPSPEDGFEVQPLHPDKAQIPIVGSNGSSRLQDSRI
Description: (§1) Inhibition of [3H]glycine uptake in human GlyT1c expressed in HEK293 cells

The subject of series [2] is Liver microsomes. Description: Intrinsic clearance in rat liver microsome. The series is classed as ADME. (Liver microsomes are vesicles of endoplasmic reticulum, rich in cytochrome P450 enzymes.)
Series [3] relates to Liver microsomes. Description: Intrinsic clearance in human liver microsome. The series is classed as ADME.
Another series has as its target Cytochrome P450 2D6 (Homo sapiens, UniProt P10635). Description: Binding affinity to CYP2D6. The series is classed as ADME.
A short description of series [4]: Oral bioavailability in rat at 5 mg/kg. It is filed as ADME, organism-based. The following applies: in vivo.
The test system of series [5] is Rattus norvegicus. Description: Bioavailability in rat at 5 mg/kg, sc. The following applies: in vivo. It is filed as ADME, organism-based.
Series [6] is described as follows: Half life in rat at 5 mg/kg, sc. The series is classed as ADME, organism-based. Further details: dose 5 mg/kg, route subcutaneous. The following applies: in vivo.
Series [7] is described as follows: Cmax in rat at 5 mg/kg, sc. It is filed as ADME, organism-based. Also noted: dose 5 mg/kg, route subcutaneous. The following applies: in vivo.
Series [8] deals with Rattus norvegicus. Description: AUC (0 to infinity) in rat at 5 mg/kg, sc. The series is classed as ADME, organism-based, Plasma. Also noted: time infinity, dose 5 mg/kg, route subcutaneous. The following applies: in vivo.
The nature of series [9]: Plasma clearance in rat at 1 mg/kg, iv. The series is classed as ADME, organism-based. Further details: dose 1 mg/kg, route intravenous.
For the next series, the system named is Brain. Description: Drug level in rat brain at 5 mg/kg, sc. Also noted: dose 5 mg/kg, route subcutaneous. The series is classed as ADME, organism-based. The conditions noted are these: in vivo.
A short description of series [10]: Half life in rat at 1 mg/kg, iv. It is filed as ADME, organism-based. Further details: dose 1 mg/kg, route intravenous. The conditions noted are these: in vivo.
The test system of series [11] is Rattus norvegicus. Put plainly: AUC (0 to infinity) in rat plasma at 1 mg/kg, iv. It is filed as ADME, organism-based. Also noted: time infinity, dose 1 mg/kg, route intravenous. The following applies: in vivo.
Series [12] can be described thus: AUC (0 to infinity) in rat brain at 1 mg/kg, iv. It is filed as ADME, organism-based. Further details: time infinity, dose 1 mg/kg, route intravenous.
The target of series [13] is T1, Sodium- and chloride-dependent glycine transporter 1. The following applies: hek293.
Description: as §1

Chain of Cytochrome P450 2D6 (P10635 whole entry): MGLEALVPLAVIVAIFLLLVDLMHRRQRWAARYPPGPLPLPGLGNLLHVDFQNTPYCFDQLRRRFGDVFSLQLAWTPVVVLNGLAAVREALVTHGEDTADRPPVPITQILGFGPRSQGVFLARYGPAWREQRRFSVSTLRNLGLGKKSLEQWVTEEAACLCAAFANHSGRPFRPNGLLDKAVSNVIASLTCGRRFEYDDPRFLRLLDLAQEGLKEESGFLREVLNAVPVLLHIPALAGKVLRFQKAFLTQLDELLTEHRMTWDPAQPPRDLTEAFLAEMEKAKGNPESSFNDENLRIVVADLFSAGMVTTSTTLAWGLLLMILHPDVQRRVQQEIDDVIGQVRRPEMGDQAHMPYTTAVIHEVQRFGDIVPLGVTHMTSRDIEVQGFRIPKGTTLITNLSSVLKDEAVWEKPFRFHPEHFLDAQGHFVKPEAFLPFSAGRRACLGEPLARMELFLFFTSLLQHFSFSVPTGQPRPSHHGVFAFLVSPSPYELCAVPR

In [1], `O=S(=O)(NC[C@H](O)CN1CCCC1)c1cccc2ccccc12` showed an IC50 of 3160 nM. Same read-out and setting: the result for `CC1CCCN1C[C@H](O)CNS(=O)(=O)c1cccc2ccccc12` (stereo partly drawn) reads 12600 nM; that for `CCCN(C[C@@H](O)CNS(=O)(=O)c1cccc2ccccc12)C(C)(C)C`, 1000 nM; that for `CCC1CCC(C)N(C[C@@H](O)CNS(=O)(=O)c2cccc3ccccc23)C1` (stereo partly drawn), 1000 nM.

Turning to `CC1CC(C)N(C[C@@H](O)CNS(=O)(=O)c2ccc3ccccc3c2)C1` (stereo partly drawn), half-maximal inhibition in series [1] (IC50) was put at 3980 nM.

Take `CC1CC(C)N(C[C@@H](O)CNS(=O)(=O)c2cccc(Cl)c2Cl)C1` (stereo partly drawn): in [1], the IC50 is 2510 nM.

As to `CC1CC(C)N(C[C@@H](O)CNS(=O)(=O)c2cc(Cl)sc2Cl)C1` (stereo partly drawn), half-maximal inhibition in [1] (IC50) required 3160 nM.

As to `Cc1cc(S(=O)(=O)NC[C@H](O)CN2CC(C)CC2C)c(C)cc1Cl` (stereo partly drawn), the 50% inhibitory concentration (IC50) in series [1] is 3160 nM. On the same count and under the same terms, the result for `CCc1cc(Br)ccc1S(=O)(=O)NC[C@H](O)CN1CC(C)CC1C` (stereo partly drawn) reads 3160 nM; that for `CC1CCC(C)N1C[C@H](O)CNS(=O)(=O)c1cccc2ccccc12` (stereo partly drawn), 7940 nM. As for `CC[C@H]1CCCCN1C[C@@H](O)CNS(=O)(=O)c1cccc2ccccc12`, the values for the clearance (in the series on Liver microsomes [2]; with Liver microsomes [3]; in series [9]) were 8 mL/min/g, 8 mL/min/g and 18 mL/min/kg, respectively. The same molecule came in with an Activity at Cytochrome P450 2D6 of 1.2 µM. In series [4], this molecule displayed a bioavailability of 4%. The same molecule yielded a F in the series with Rattus norvegicus [5] of 95%. The half-life in series [6] was 54 min; in [10] it was 60 min. The highest level in [7] (Cmax) was 564 ng/mL. For the same molecule, the results for the area under the curve (AUC) in the series on Rattus norvegicus [8] and with Rattus norvegicus [11] were 1731 ng·h/mL and 952 ng·h/mL, respectively. The same molecule registered a Drug uptake in the series on Brain of 564 ng/mL. Also, in [12], the total exposure AUC(0-inf) was 587 ng·h/mL. `CC1CCCN(C[C@@H](O)CNS(=O)(=O)c2cccc3ccccc23)C1` (stereo partly drawn) showed a concentration for half-maximal inhibition (IC50) in series [1] of 3980 nM. Same read-out and setting: the result for `CCCN(C[C@@H](O)CNS(=O)(=O)c1cccc2ccccc12)C(C)CC` (stereo partly drawn) reads 1260 nM; that for `CC1CCCCN1C[C@@H](O)CNS(=O)(=O)c1cccc2ccccc12` (stereo partly drawn), 316 nM.

Take `CC1CCC(C)N1C[C@@H](O)CNS(=O)(=O)c1cccc2ccccc12` (stereo partly drawn): the IC50 in series [1] was 794 nM. The same measure, in the same setting: the result for `CC1CCCN1C[C@@H](O)CNS(=O)(=O)c1cccc2ccccc12` (stereo partly drawn) reads 1000 nM.

The molecule `O=S(=O)(NC[C@H](O)CN1CCCCC1)c1cccc2ccccc12` gave a concentration for half-maximal inhibition (IC50) in series [1] of 3160 nM. On to `O=S(=O)(NC[C@H](O)CN1CCCC1C1CCCCC1)c1cccc2ccccc12` (single isomer, unassigned; isomer A), for which, in [13], the “Log IC50” value was -5.2. Regarding `CC(C)(C)C1CCCN1C[C@@H](O)CNS(=O)(=O)c1cccc2ccccc12` (single isomer, unassigned; isomer A), the IC50 in series [1] is 7940 nM. As for `CCC1CCCN1C[C@@H](O)CNS(=O)(=O)c1cccc2ccccc12` (single isomer, unassigned; isomer A), in [1], half-maximal inhibition (IC50) was put at 1260 nM. Still for that read-out and setting: the result for `CC(C)C1CCCCN1C[C@@H](O)CNS(=O)(=O)c1cccc2ccccc12` (single isomer, unassigned; isomer A) reads 3980 nM; that for `CC(C)CC1CCCN1C[C@@H](O)CNS(=O)(=O)c1cccc2ccccc12` (single isomer, unassigned; isomer A), 6310 nM. The same measure, in the same setting: to `CC(C)C1CCCN1C[C@@H](O)CNS(=O)(=O)c1cccc2ccccc12` (single isomer, unassigned; isomer A) belongs 1000 nM; to `O=S(=O)(NC[C@H](O)CN1CCCC1C1CCCCC1)c1cccc2ccccc12` (single isomer, unassigned; isomer B), 6310 nM; to `CC(C)(C)C1CCCN1C[C@@H](O)CNS(=O)(=O)c1cccc2ccccc12` (single isomer, unassigned; isomer B), 200 nM. Still for that read-out and setting: to `O=S(=O)(NC[C@H](O)CN1CCCC1C1CC1)c1cccc2ccccc12` (single isomer, unassigned; isomer B) belongs 501 nM; to `CCC1CCCN1C[C@@H](O)CNS(=O)(=O)c1cccc2ccccc12` (single isomer, unassigned; isomer B), 1580 nM. Molecule `CC(C)CC1CCCN1C[C@@H](O)CNS(=O)(=O)c1cccc2ccccc12` (single isomer, unassigned; isomer B) gave an IC50 in series [1] of 2510 nM. In series [1], `CC(C)C1CCCN1C[C@@H](O)CNS(=O)(=O)c1cccc2ccccc12` (single isomer, unassigned; isomer B) gave an IC50 of 200 nM. In series [1], `O=S(=O)(NC[C@H](O)CN1CCCC1C1CC1)c1cccc2ccccc12` (stereo in doubt) showed a half-maximal inhibitory concentration (IC50) of 1580 nM. The molecule `CC(C)C1CCCCN1C[C@@H](O)CNS(=O)(=O)c1cccc2ccccc12` (stereo in doubt) had an IC50 in series [1] of 631 nM.

(Values after ChEMBL document CHEMBL1139093, “1,3-diaminopropan-2-ol sulfonamides as potent and selective inhibitors of the glycine transporter type 1” (Bioorg Med Chem Lett, 2007).)
